Broadly, the IC50 is the concentration at which inhibition is half-maximal.

Chain of Human Full Length PARG (Q86W56 whole entry): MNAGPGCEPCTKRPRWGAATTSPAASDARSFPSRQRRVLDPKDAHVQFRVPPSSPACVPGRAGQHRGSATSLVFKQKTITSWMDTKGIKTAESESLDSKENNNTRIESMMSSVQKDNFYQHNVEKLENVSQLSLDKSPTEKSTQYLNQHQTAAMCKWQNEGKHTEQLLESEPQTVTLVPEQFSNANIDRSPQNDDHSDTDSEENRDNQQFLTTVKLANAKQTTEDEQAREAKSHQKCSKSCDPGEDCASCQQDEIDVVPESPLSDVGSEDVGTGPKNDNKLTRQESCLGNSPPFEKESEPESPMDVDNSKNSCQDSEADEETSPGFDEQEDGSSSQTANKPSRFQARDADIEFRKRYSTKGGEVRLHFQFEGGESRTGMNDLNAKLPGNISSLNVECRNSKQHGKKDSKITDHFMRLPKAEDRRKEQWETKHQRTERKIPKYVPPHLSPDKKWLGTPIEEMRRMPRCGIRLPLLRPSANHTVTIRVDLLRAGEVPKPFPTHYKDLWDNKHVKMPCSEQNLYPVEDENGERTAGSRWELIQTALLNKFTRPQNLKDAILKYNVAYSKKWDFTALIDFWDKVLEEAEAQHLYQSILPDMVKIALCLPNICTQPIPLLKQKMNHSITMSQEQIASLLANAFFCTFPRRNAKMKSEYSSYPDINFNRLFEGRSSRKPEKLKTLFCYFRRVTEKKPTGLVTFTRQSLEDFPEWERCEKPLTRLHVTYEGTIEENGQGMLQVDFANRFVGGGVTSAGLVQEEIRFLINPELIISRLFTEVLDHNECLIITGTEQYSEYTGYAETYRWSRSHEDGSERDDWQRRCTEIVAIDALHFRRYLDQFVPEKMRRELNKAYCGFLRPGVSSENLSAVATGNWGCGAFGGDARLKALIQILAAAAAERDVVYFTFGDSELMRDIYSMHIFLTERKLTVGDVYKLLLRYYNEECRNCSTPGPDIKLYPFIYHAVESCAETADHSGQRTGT

The assay concerns the target Human Full Length PARG (Homo sapiens (Human), UniProt Q86W56). As to the kind of experiment: PARG enzyme assay (TR-FRET). The format is biochemical. The note with it: read-out: PARG Biochem IC50 Geomean.
Turning to `Cn1c(=O)n(Cc2cnn(CC(N)=O)c2)c(=O)c2cc(S(=O)(=O)NC3(C)CC3)ccc21` [Example 203], the IC50 was determined as 635 nM.
Regarding `Cn1c(=O)n(CC(=O)N2CCOCC2)c(=O)c2cc(S(=O)(=O)NC3(C)CC3)ccc21` [Example 182], the IC50 came out at 4410 nM.
Next, `Cc1cc(COc2nc3ccc(S(=O)(=O)NC4(C)CC4)cc3c(=O)n2Cc2c(C)noc2C)n(C)n1` [Example 167]: 700 nM; `COC(=O)c1nn(Cc2cc(C)no2)c(=O)c2cc(S(=O)(=O)NC3(C)CC3)ccc12` [Example 301]: 836 nM.
Next, `Cn1ccnc1Cn1c(=O)n(C)c(=O)c2cc(S(=O)(=O)NC3(C)CC3)ccc21` [Example 48]: 750 nM.
For `Cn1c(=O)n(Cc2ccncc2)c(=O)c2cc(S(=O)(=O)NC3(C)CC3)ccc21` [Example 53], the IC50 is 7980 nM.
On to `CC1(NS(=O)(=O)c2ccc3c(c2)[nH]c(=O)c(=O)n3Cc2ccc(F)cc2)CC1` [Example 128, 1-[(4-Fluorophenyl)methyl]-N-(1-methylcyclopropyl)-2,3-dioxo-4H-quinoxaline-6-sulfonamide], for which the IC50 stood at 5100 nM.
Next, `Cn1c(=O)[nH]c2cc(F)c(S(=O)(=O)NC3(C)CC3)cc2c1=O` [Example 211, 7-Fluoro-3-methyl-N-(1-methylcyclopropyl)-2,4-dioxo-1H-quinazoline-6-sulfonamide]: 1560 nM.
Turning to `Cn1c(=O)n(Cc2cnccn2)c(=O)c2cc(S(=O)(=O)NC3(C)CC3)ccc21` [Example 108], the half-inhibitory concentration (IC50) was 7800 nM.
Next, `Cn1c(=O)c2cc(S(=O)(=O)NC3(C#N)CC3)ccc2n(C)c1=O` [Example 3]: 4960 nM; `Cn1c(=O)c2cc(S(=O)(=O)NC3(C)CC3)ccc2n(Cc2nccs2)c1=O` [Example 146]: 671 nM; `Cn1c(=O)n(Cc2cnn(CC3CC3)c2)c(=O)c2cc(S(=O)(=O)NC3(C)CC3)ccc21` [Example 218]: 681 nM.
Next, `Cc1cc(Cn2nc(C(=O)N(C)C)c3ccc(S(=O)(=O)NC4(C)CC4)cc3c2=O)on1` [Example 326]: 8630 nM.
Next, `Cn1c(=O)c2cc(S(=O)(=O)NC3(C)CC3)ccc2n(Cc2noc(C(C)(C)C)n2)c1=O` [Example 119]: 1420 nM; `Cn1c(=O)n(CC(=O)Nc2ccccc2)c(=O)c2cc(S(=O)(=O)NC3(C)CC3)ccc21` [Example 85]: 2250 nM; `Cc1cc(Cn2nc(C)c3ccc(S(=O)(=O)NC4(C)CC4)cc3c2=O)on1` [Example 284, 1-methyl-N-(1-methylcyclopropyl)-3-[(3-methylisoxazol-5-yl)methyl]-4-oxo-phthalazine-6-sulfonamide]: 1180 nM.
As to `C#CCn1c(=O)c2cc(S(=O)(=O)NC3(C)CC3)ccc2n(C)c1=O` [Example 47], the IC50 is 2970 nM.
Take `Cn1c(=O)n(Cc2cnn(Cc3ccccc3)c2)c(=O)c2cc(S(=O)(=O)NC3(C)CC3)ccc21` [Example 215]: the IC50 stood at 592 nM.
Next, `Cc1noc(Cn2c(=O)c3cc(S(=O)(=O)NC4(C)CC4)ccc3n(C)c2=O)n1` [Example 190]: 3180 nM.
Next, `CCOc1nn(Cc2cc(C)no2)c(=O)c2cc(S(=O)(=O)NC3(C)CC3)ccc12` [Example 316, 1-Ethoxy-N-(1-methylcyclopropyl)-3-[(3-methylisoxazol-5-yl)methyl]-4-oxo-phthalazine-6-sulfonamide]: 737 nM.
Next, `CCC1(NS(=O)(=O)c2ccc3c(c2)c(=O)n(Cc2cc(C)no2)c(=O)n3C)CC1` [Example 261]: 3040 nM; `Cc1cc(Cn2nc(C#CCN(C)C)c3ccc(S(=O)(=O)NC4(C)CC4)cc3c2=O)on1` [Example 283, 1-[3-(dimethylamino)prop-1-ynyl]-N-(1-methylcyclopropyl)-3-[(3-methylisoxazol-5-yl)methyl]-4-oxo-phthalazine-6-sulfonamide]: 512 nM.
